Assay results reported in US20060142391A1, “PPARGAMMA-ACTIVATING PHARMACEUTICAL COMPOSITION” (priority 2001, published 2006).

Columns and labels:
[1] = test system: GAL4 (yeast transcription activator)—PPARγ fusion protein; test: PPARγ agonist activity assay (GAL4-PPARγ / CAT reporter in COS-1 cells); format: cell-based; conditions: for PPARγ agonist activity compared with 15-deoxy-PG J2 positive control: 1 μM; for PPARγ agonist activity relative to the negative control group with no drug added: concentration of 1 μM
Procedure: COS-1 cells were cotransfected with a plasmid for expressing a GAL4 (yeast transcription activator)—PPARγ fusion protein (effector plasmid) and a reporter plasmid 17 M2 CAT (GAL4 responsive sequence+TK promoter+chloramphenicol acetyltransferase cDNA), and then test compounds were added to the culture medium and CAT activity was assayed after 24 hours and compared with a negative control (with no drug added) to calculate a relative CAT activity, whereby PPARγ agonist activity was evaluated ('90 Proc. Natl. Acad. Sci. USA 87, p. 9995; '94 J. B. C. 269, p. 32700; '95 ibid. p. 5858; '00 J.B.C. 275, p. 33201). […] Then, 4(S)-OH-DHA, 8(S)-OH-DHA, 10(S)-OH-DHA, 11(S)-OH-DHA, 14(S)-OH-DHA and 17(S)-OH-DHA prepared in Example 1 were used as test compounds to assay PPARγ agonist activity as compared with 15-deoxy-PG J2 (from Bio Mol) known as a ligand for PPARγ as a positive control.

platelets = test: Ex vivo collagen-induced platelet aggregation assay; format: in vivo, rats; conditions: 3-6 μg/ml collagen
Procedure: An evaluation was made to determine whether or not collagen-induced platelet aggregation is inhibited by 4(S)-OH-DHA.
Male SD rats (SPF, 9 weeks of age) were anesthetized and then blood was collected from the abdominal aorta into a tube containing 3.8% sodium citrate (Chitoral from Yamanouchi Pharmaceutical Co., Ltd.). The tube was centrifuged at 900 rpm at room temperature for 10 minutes to collect the supernatant (PRP, platelet-rich fraction), and the residue was further centrifuged at 2500 rpm for 15 minutes to collect the supernatant (PPP, platelet-poor fraction).
A cuvette containing PPP (platelet-poor fraction) was placed in an incubator for PPP at 37° C. in an aggregometer (Hematracer 240 12 ch, from MCM). Then, a cuvette containing 200 μl of PRP (platelet-rich fraction) was placed in a reactor for PRP. The cuvettes were stirred with a magnetic stirrer for 30 seconds to automatically correct the permeability of PPP to T650 nm=100% and the permeability of PRP to T650 nm=0%.
After 1 minute, 20 μl of collagen (from MCM) was added and subsequent changes in permeability were recorded for 5 minutes. The permeability increases with platelet aggregation. The permeability T at maximum aggregation, i.e. at the peak of aggregation was compared with the permeability T0 of a negative control to determine the degree of aggregation inhibition expressed in percentage using the following equation. Aggregation inhibition=(1−T/T0)×100
The aggregation induced by 3-6 μg/ml of collagen was evaluated in platelets prepared from blood collected at 2 instants, i.e. 10 minutes and 60 minutes after administration of 10 mg/kg of 4(S)-OH-DHA to the tail vain of male SD rats (SPF, 9 weeks of age). The aggregation was determined in animals treated with vehicle (physiological saline) as a control group.
As a control, a solvent (physiological saline) was used. Aggregation was induced by 3-6 μg/ml of collagen in platelets prepared from blood collected 10 minutes after administration of 10, 1 or 0.1 mg/kg of the test compound to the tail vain of rats.

[2] = test system: neutrophils and vascular endothelial cells; test: In vitro model simulating vascular inflammation induced by TNFα (transwell); format: cell-based, bovine; conditions: 30, 3 or 0.3 μM together with TNFα
Procedure: An in vitro model simulating vascular inflammation was prepared according to the method described in “Textbook on Biopharmaceutical Experiments, 12 Inflammation and Allergy II”, pp. 327-341 (edited by Kazuo Ouchi, published by Hirokawa Publishing Co., May 15, 1993).
Transwells (from Kurabo Industries, Ltd.) divided into upper and lower chambers by a porous polycarbonate membrane having a pore size of 3 μm were used and a layer of bovine endothelial cells were coated on the bottom of the membrane and incubated at 37° C. under 5% CO2 for 80 minutes. […]
To the upper chamber of the transwells was added a suspension of neutrophils containing 4(S)-OH-DHA at a final concentration of 30, 3 or 0.3 μM together with TNFα to count the number of neutrophils permeating the vascular endothelial cell layer from the upper chamber into the lower chamber and the number of neutrophils adhering to the endothelial cell layer in the same manner as described above, and thereafter the migration and adhesion (%) of neutrophils were calculated.
The migration and adhesion percentages of neutrophils were expressed as relative values of the numbers of neutrophils that migrated or adhered in the group treated with the drug as compared with neutrophils in a negative control group.

[3] = test system: hereditary diabetes db/db mice; test: Evaluation on hereditary diabetes mice (blood sugar); format: in vivo; conditions: oral 100 mg/kg for a week, n=6
Procedure: As a result of oral administration of 100 mg/kg of 8(S)-OH-DHA and 14(S)-OH-DHA to hereditary diabetes db/db mice (average body weight: 42 g, n=6, available from Sankyo Co., Ltd.) for a week, a significant decrease in blood sugar levels could be observed as compared with a negative control group (treated with 5% gum acacia as a vehicle) (Table 1).

rat aortic smooth muscle = conditions: contraction induced by thromboxane A2 analog U 46619 (2.5 μM); cited from earlier work

CC/C=C\C/C=C\C/C=C\C/C=C\C/C=C\C=C\[C@@H](O)CCC(=O)O [4(S)-OH-DHA]
PPARγ agonist activity compared with 15-deoxy-PG J2 positive control [1]: comparable to or higher than that of 15-deoxy-PG J2
PPARγ agonist activity relative to the negative control group with no drug added ([1]; CAT activity after 24 hours): about 3 times
Platelet aggregation vs vehicle group (platelets; 1 mg/kg to tail vein, blood collected 10 minutes after administration): platelet aggregation was inhibited
Platelet aggregation vs vehicle group (platelets; 10 mg/kg to tail vein, blood collected 10 minutes after administration): platelet aggregation was inhibited
Platelet aggregation vs vehicle group (platelets; 10 mg/kg to tail vein, blood collected 60 minutes after administration): platelet aggregation was inhibited
Adhesion of neutrophils to the endothelial cell layer [2]: inhibited
Permeation (migration) of neutrophils through the endothelial cell layer [2]: inhibited

CC/C=C\C/C=C\C/C=C\C/C=C\C[C@H](O)/C=C/C=C\CCC(=O)O [8(S)-OH-DHA]
PPARγ agonist activity compared with 15-deoxy-PG J2 positive control [1]: comparable to or higher than that of 15-deoxy-PG J2
PPARγ agonist activity relative to the negative control group with no drug added ([1]; CAT activity after 24 hours): about 7 times
Blood sugar level [3]: 190 ± 20 mg/dL

CC/C=C\C/C=C\C/C=C\C=C\[C@@H](O)C/C=C\C/C=C\CCC(=O)O [10(S)-OH-DHA]
PPARγ agonist activity compared with 15-deoxy-PG J2 positive control [1]: comparable to or higher than that of 15-deoxy-PG J2
PPARγ agonist activity relative to the negative control group with no drug added ([1]; CAT activity after 24 hours): about 3 times

CC/C=C\C/C=C\C/C=C\C[C@H](O)/C=C/C=C\C/C=C\CCC(=O)O [11(S)-OH-DHA]
PPARγ agonist activity compared with 15-deoxy-PG J2 positive control [1]: comparable to or higher than that of 15-deoxy-PG J2
PPARγ agonist activity relative to the negative control group with no drug added ([1]; CAT activity after 24 hours): about 3 times

CC/C=C\C/C=C\C[C@H](O)/C=C/C=C\C/C=C\C/C=C\CCC(=O)O [14(S)-OH-DHA]
PPARγ agonist activity compared with 15-deoxy-PG J2 positive control [1]: comparable to or higher than that of 15-deoxy-PG J2
PPARγ agonist activity relative to the negative control group with no drug added ([1]; CAT activity after 24 hours): about 7 times
Blood sugar level [3]: 220 ± 13 mg/dL

CC/C=C\C/C=C\CC(O)/C=C/C=C\C/C=C\C/C=C\CCC(=O)O (stereo not drawn) [14OH-DHA]
25% inhibition concentration IC25 (rat aortic smooth muscle): 1070 ± 340 nM

CC/C=C\C[C@H](O)/C=C/C=C\C/C=C\C/C=C\C/C=C\CCC(=O)O [17(S)-OH-DHA]
PPARγ agonist activity compared with 15-deoxy-PG J2 positive control [1]: comparable to or higher than that of 15-deoxy-PG J2
PPARγ agonist activity relative to the negative control group with no drug added ([1]; CAT activity after 24 hours): about 3 times

CC/C=C\C/C=C\C/C=C\C/C=C\C/C=C\C/C=C\CCC(=O)O [DHA, docosahexaenoic acid, reference compound]
PPARγ transcription activity, ratio as compared with the negative control ([1]; test compound at 3 μM, CAT activity after 24 hours): 205±79%
